1 compound from patent US8759367B2, “Compounds and methods for the prevention and treatment of cancer” (The Wistar Institute, priority 2010, dated 2014) can be followed below.

The assay deals with GLI1-driven reporter activity mediated by exogenous SHH (Shh-light2 cells). Description: GLI-dependent firefly luciferase reporter assay in Shh-light2 cells treated with SHH. The following applies: AKI0532 5, 2.5 or 1 μM in DMSO, alone (−SHH) or with SHH (+SHH), 2 days, FIG. 1. The class given is cell-based. Here is the method:
Shh-light2 cells (3T3 clone stably transfected with a GLI-dependent firefly luciferase plasmid) were treated with carrier DMSO as control or AKI0532 (5, 2.5, or 1 μM in DMSO) either alone (−SHH) or in combination with SHH (+SHH) for 2 days.
For example, AKI0532 analogs shown in Table 1 can be subjected to a battery of tests that are commonly used to assess effects on SHH activity and to determine specificity. As exemplified herein for AKI0532, one screen involves examining the activation of the SHH pathway using the well-established cell line, SHH-Light2 cells. This cell line is a 3T3 clone that stably expresses a GLI-dependant firefly luciferase (Taipale, et al. (2000) Nature 406:1005-1009). […] Concentrations of each compound, ranging from 20 μM to 1 μM, can be tested. SHH-Light2 cells are seeded 24 hours prior to treatment. They were then cultured for an additional 48 hours in standard serum-containing media prior to analysis. GLI-binding site luciferase activities are measured using a commercially available luciferase reporter assay system. Treatment of SHH-Light2 cells with recombinant SHH (200 ng) results in strong induction of reporter activity. IC50 values are determined and are compared to that of AKI0532 in the same assay in order to assess which of the AKI0532 analogs have the highest levels of SHH inhibitory activity.

`C[C@]12CCC(c3ccc(O)cc3)=CC1=CC[C@@]21Cc2ncccc2O1` [AKI0532]: the “GLI1-driven reporter activity mediated by exogenous SHH” value is “inhibits GLI1-driven reporter activity mediated by exogenous SHH”.
